Reference: patent publication US12617777B2, “GPR84 antagonists and uses thereof” (Liminal BioSciences Limited, priority 2021, dated 2026)

Target: T1, human GPR84 receptor (Homo sapiens, UniProt Q9NQS5)
T1 construct: host or cells: HEK293, transient transfection
Assay: Gαi biosensor BRET assay in HEK293 cells (antagonism of ZQ-16)
Assay type: cell-based
Details: for inhibition at 10 µM: HEK293, single concentration 10 μM (designated F); for IC50: HEK293 cells, antagonism of 200 nmol/L ZQ-16; for inhibition at 2 µM: HEK293, single concentration 2 μM (designated A)
Outline: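 Antagonist mode: test compound 5 min at 37° C, followed by ZQ-16 agonist (200 nmol/L, 5 min, room temperature), in HEK293 cells transfected with GPR84 plus Rluc8-tagged Gαi2, GFP10-Gγ2 and Gβ1. Readout as GFP10/Rluc8 emission ratio after 5 μmol/L coelenterazine 400A, net of Rluc8-only and vehicle signal.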

T1 sequence (Q9NQS5 whole entry): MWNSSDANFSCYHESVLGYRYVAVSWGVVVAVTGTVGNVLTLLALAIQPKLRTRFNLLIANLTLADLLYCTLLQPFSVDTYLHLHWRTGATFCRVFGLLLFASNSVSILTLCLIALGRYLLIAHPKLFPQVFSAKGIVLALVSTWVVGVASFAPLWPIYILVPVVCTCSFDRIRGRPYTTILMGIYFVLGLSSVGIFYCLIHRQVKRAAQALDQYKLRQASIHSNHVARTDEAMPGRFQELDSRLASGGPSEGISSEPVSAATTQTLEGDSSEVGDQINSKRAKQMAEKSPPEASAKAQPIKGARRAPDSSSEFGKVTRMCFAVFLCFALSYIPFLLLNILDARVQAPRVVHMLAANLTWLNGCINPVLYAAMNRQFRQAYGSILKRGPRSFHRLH

| inhibition at 10 µM | IC50 | inhibition at 2 µM | Structure (SMILES) |
| --- | --- | --- | --- |
| > 75% | 300 to 1000 nM |  | CCc1cc(N2CC(C)(O)C2)ccc1-c1cn(CC2OCC(C)(C)CO2)nn1 [Compound I-641] |
| > 75% | 1000 to 3000 nM |  | COC(c1cn(CC2CC(C)(C)CO2)nn1)c1cc(C#CC2CC2)ccc1C (stereo not drawn) [Compound I-642] |
|  |  | 50 to 75% | Cc1ccc(C#CC2CC2)cc1Cc1cn(CC2CC(C)(C)CO2)nn1 (stereo not drawn) [Compound I-643] |
| > 75% |  |  | Cc1cc(C#CCn2cc(C3CC3)nn2)ccc1-c1cn(CC2CCCCO2)nn1 (stereo not drawn) [Compound I-645] |
|  | 300 to 1000 nM | > 75% | COC(c1cn(CC2CCCCO2)cn1)c1cc(C#CC2CC2)ccc1C (stereo not drawn) [Compound I-646] |
|  | 300 to 1000 nM | > 75% | CCc1cc(N2CC(C)(C)C2)ccc1-c1cn(CC2Oc3ccccc3O2)nn1 [Compound I-647] |
| > 75% |  |  | Cc1cc(C#CC2CC(F)(F)C2)cnc1-c1cn(CC2CCCCO2)nn1 (stereo not drawn) [Compound I-648] |
|  | 1000 to 3000 nM | > 75% | CC(C)Oc1cc(C#CC2CC(F)(F)C2)cnc1-c1cn(CC2CCCCO2)nn1 (stereo not drawn) [Compound I-649] |
| ≤ 25% |  |  | Cc1cc(N2CC3(C2)CN(c2ccccn2)C3)ccc1-c1cn(CC2CCCCO2)nn1 (stereo not drawn) [Compound I-652] |
| > 75% |  |  | Cc1cc(C#CC2CC(F)(F)C2)cnc1-c1cn(CC2OCC(C)(C)CO2)nn1 [Compound I-653] |
| > 75% | ≤ 300 nM |  | CN(C)c1cc(N2CC(C)(CO)C2)ccc1-c1cn(CC2OCC(C)(C)CO2)nn1 [Compound I-654] |
| 50 to 75% |  |  | COC(c1cn(CC2CCCCO2)nn1)c1cc(C#CC2CC2)ccc1C(F)(F)F (stereo not drawn) [Compound I-655] |
| > 75% | 300 to 1000 nM |  | COC(c1cn(CC2CCCCO2)nn1)c1c(C)ccc(C#CC2CC2)c1F (stereo not drawn) [Compound I-656] |
| > 75% | > 3000 nM |  | CCc1cc(C#CCNc2ccccn2)cnc1-c1cn(C[C@H]2CCCCO2)nn1 [Compound I-658] |
| > 75% | ≤ 300 nM |  | CC(C)Oc1cc(C#CC2CC2)cnc1-c1cn(C[C@H]2CCCCO2)nn1 [Compound I-659] |
| ≤ 25% |  |  | Cc1cc(N2CC(C)(CN3CC(C)(C)C3)C2)ccc1-c1cn(CC2CCCCO2)nn1 (stereo not drawn) [Compound I-660] |
| > 75% | > 3000 nM |  | Cc1cc(C#CC2CC(F)(F)C2)ccc1-c1cn(CC2OCC(C)(C)CO2)nn1 [Compound I-662] |
| > 75% | > 3000 nM |  | Cc1cc(N2CC3(C2)CN(c2ccccn2)C3)ccc1-c1cn(CC2OCC(C)(C)CO2)nn1 [Compound I-663] |
| > 75% | ≤ 300 nM |  | CC(C)Oc1cc(N2CC(C)(C)C2)cnc1-c1cn(CC2OCC(C)(C)CO2)nn1 [Compound I-664] |
| > 75% | ≤ 300 nM |  | Cc1cc(N2CC(C)(C)C2)ccc1-c1cn(CC2OCC(C)(C)CO2)nn1 [Compound I-665] |
|  | ≤ 300 nM | > 75% | CCc1cc(C#CCN2CC(C)(C)C2)cnc1-c1cn(CC2OCC(C)(C)CO2)nn1 [Compound I-666] |
| > 75% | 300 to 1000 nM |  | CN(C)c1cc(N2CC(CO)(CO)C2)ccc1-c1cn(CC2OCC(C)(C)CO2)nn1 [Compound I-667] |
|  | ≤ 300 nM | > 75% | Cc1cc(C#CCn2cc(-c3ccc(N(C)C)cc3)nn2)cnc1-c1cn(CC2OCC(C)(C)CO2)nn1 [Compound I-668] |

| inhibition at 10 µM | IC50 | inhibition at 2 µM | Structure (SMILES) |
| --- | --- | --- | --- |
|  | ≤ 300 nM | > 75% | Cc1ccc(C#CC2CC2)cc1Cc1cn(CC2OCC(C)(C)CO2)nn1 [Compound I-669, 4-(5-(cyclopropylethynyl)-2-methylbenzyl)-1-((5,5-dimethyl-1,3-dioxan-2-yl)methyl)-1H-1,2,3-triazole] |
| 50 to 75% |  |  | Cc1cc(C#CC2CC2)ccc1-c1cn(CC2OCC(F)(F)CO2)nn1 [Compound I-670] |
| > 75% | 1000 to 3000 nM |  | Cc1cc(N2CCN(Cc3ccccn3)CC2)ccc1-c1cn(C[C@H]2CCCCO2)cn1 [Compound I-671] |
| ≤ 25% |  |  | Cc1cc(N2CCN(Cc3ccccn3)CC2)ccc1-c1cncn1C[C@H]1CCCCO1 [Compound I-672] |
|  | ≤ 300 nM | > 75% | Cc1cc(N2CC(C)(CNc3ccccn3)C2)ccc1-c1cn(CC2OCC(C)(C)CO2)nn1 [Compound I-673] |
|  | 300 to 1000 nM | > 75% | COC(c1cn(Cc2ncccn2)nn1)c1cc(C#CC2CC2)ccc1C (stereo not drawn) [Compound I-674] |
| > 75% |  |  | Cc1cc(N2CC(C)(CN(C)c3ccccn3)C2)ccc1-c1cn(CC2CCCCO2)nn1 (stereo not drawn) [Compound I-675] |
|  | ≤ 300 nM | > 75% | CC(C)Oc1cc(C#CCN2CC(C)(C)C2)cnc1-c1cn(CC2OCC(C)(C)CO2)nn1 [Compound I-676] |
|  | ≤ 300 nM | > 75% | CC(C)Oc1cc(N2CC(C)(CO)C2)ccc1-c1cn(CC2CC(C)(C)O2)nn1 (stereo not drawn) [Compound I-677] |
|  | 300 to 1000 nM | > 75% | CC(C)Oc1cc(N2CC(C)(CO)C2)ccc1-c1cn(CC2OCC(C)(C)CO2)nn1 [Compound I-678] |
| > 75% |  |  | Cc1ccc(C#CC2CC2)cc1C1(c2cn(CC3CCCCO3)nn2)CC1 (stereo not drawn) [Compound I-679, 4-(1-(5-(cyclopropylethynyl)-2-methylphenyl)cyclopropyl)-1-((tetrahydro-2H-pyran-2-yl)methyl)-1H-1,2,3-triazole] |
| 50 to 75% |  |  | COC(C)(c1cn(CC2CCCCO2)nn1)c1cc(C#CC2CC2)ccc1C (stereo not drawn) [Compound I-680] |
|  | 300 to 1000 nM | > 75% | Cc1ccc(C#CC2CC2)cc1C(CC(F)(F)F)c1cn(CC2OCC(C)(C)CO2)nn1 (stereo not drawn) [Compound I-681] |
| > 75% | 300 to 1000 nM |  | Cc1cc(N2CCN(Cc3ccccn3)CC2)ccc1-c1cn(CC2OCC(C)(C)CO2)cn1 [Compound I-682] |
| ≤ 25% |  |  | Cc1cc(N2CCN(Cc3ccccn3)CC2)ccc1-c1cncn1CC1OCC(C)(C)CO1 [Compound I-683] |
| > 75% |  |  | Cc1cc(N2CC3(CN(c4cccnc4)C3)C2)ccc1-c1cn(CC2OCC(C)(C)CO2)nn1 [Compound I-684] |
| > 75% | 1000 to 3000 nM |  | Cc1cc(N2CC(C)(C)C2)c(C)cc1-c1cn(CC2OCC(C)(C)CO2)nn1 [Compound I-685] |
| > 75% | 300 to 1000 nM |  | Cc1cc(C#CC2CC2)ccc1-c1cn(CC2OCC3(CC3)CO2)nn1 [Compound I-686] |
| 50 to 75% |  |  | Cc1cc(N2CC(C)(C)C2)ccc1-c1cn(CC2OCC(F)(F)CO2)nn1 [Compound I-687] |
| > 75% | 300 to 1000 nM |  | COC(c1cn(CC2CCCCO2)nn1)c1cc(C#CC2CC2)c(F)cc1C (stereo not drawn) [Compound I-688] |
| > 75% | 1000 to 3000 nM |  | Cc1cc(N2CC3(CCCN3c3ccccn3)C2)ccc1-c1cn(CC2OCC(C)(C)CO2)nn1 [Compound I-689] |
| 25 to 50% |  |  | Cc1cc(C#CCN)ccc1-c1cn(CC2OCC(C)(C)CO2)nn1 [Compound I-690] |
| > 75% | 300 to 1000 nM |  | Cc1cc(N2CCN(C(C)c3ccccn3)CC2)ccc1-c1cn(CC2OCC(C)(C)CO2)nn1 (stereo not drawn) [Compound I-691] |

| Structure (SMILES) | inhibition at 10 µM | IC50 | inhibition at 2 µM |
| --- | --- | --- | --- |
| Cc1cc(N2CCN(CC3CC4CCN3CC4)CC2)ccc1-c1cn(CC2CCCCO2)nn1 (stereo not drawn) [Compound I-657] | ≤ 25% |  |  |
| Cc1cc(N2CCN(CC3CC4CCN3CC4)CC2)ccc1-c1cn(CC2OCC(C)(C)CO2)nn1 (stereo not drawn) [Compound I-661] | ≤ 25% |  |  |
